Data taken from patent US20230139171A1 (SITA Information Networking Computing UK Limited, priority 2019, published 2023).

Experiments:
Format in all cases: cell-based
[1] = molecular target: T1, human TLR7 (Homo sapiens, UniProt Q9NYK1); experiment: TLR7 inhibition reporter assay (HEK-Blue cells, SEAP reporter, gardiquimod stimulation); settings: HEK-Blue cells overexpressing human TLR7, SEAP reporter, gardiquimod 7.5 μM; read-out: TLR7 IC50
T1 construct: host or cells: HEK-Blue cells
T1 sequence (Q9NYK1 27-1049): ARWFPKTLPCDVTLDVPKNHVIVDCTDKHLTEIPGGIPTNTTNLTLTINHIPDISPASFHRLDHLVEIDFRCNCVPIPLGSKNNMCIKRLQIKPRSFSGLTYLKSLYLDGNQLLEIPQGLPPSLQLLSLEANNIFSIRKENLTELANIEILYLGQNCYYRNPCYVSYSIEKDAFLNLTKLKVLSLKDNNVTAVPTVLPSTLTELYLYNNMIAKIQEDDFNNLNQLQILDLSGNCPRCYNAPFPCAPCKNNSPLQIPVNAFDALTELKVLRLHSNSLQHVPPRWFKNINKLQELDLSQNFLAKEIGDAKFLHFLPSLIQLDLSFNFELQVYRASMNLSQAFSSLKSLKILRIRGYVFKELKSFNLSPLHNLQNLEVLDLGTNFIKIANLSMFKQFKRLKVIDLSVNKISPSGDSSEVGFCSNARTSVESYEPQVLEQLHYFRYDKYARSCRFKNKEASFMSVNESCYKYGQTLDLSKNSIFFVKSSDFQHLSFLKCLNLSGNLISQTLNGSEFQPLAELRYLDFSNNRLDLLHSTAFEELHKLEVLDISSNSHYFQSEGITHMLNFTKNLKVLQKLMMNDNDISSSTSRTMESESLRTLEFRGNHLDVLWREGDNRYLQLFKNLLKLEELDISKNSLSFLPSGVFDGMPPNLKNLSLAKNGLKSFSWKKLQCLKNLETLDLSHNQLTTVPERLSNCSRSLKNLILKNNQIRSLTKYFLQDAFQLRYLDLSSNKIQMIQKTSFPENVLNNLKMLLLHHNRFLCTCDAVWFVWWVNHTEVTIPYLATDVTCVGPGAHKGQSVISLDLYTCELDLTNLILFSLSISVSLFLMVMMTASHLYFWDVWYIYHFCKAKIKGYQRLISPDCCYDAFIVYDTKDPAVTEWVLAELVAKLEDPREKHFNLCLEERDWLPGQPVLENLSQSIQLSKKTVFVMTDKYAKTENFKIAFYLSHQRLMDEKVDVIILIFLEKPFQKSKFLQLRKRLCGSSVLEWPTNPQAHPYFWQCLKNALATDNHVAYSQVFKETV
Procedure, shortened: (§1)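 Compound treatment: 30 min, RT, 0.05 nM–50 μM final. Agonist: TLR7 gardiquimod 7.5 μM; TLR8 R848 15.9 μM; TLR9 ODN2006 5 nM. Incubation 22 h, 37 °C, 5% CO2. Readout SEAP, HEK-Blue Detection.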

[2] = molecular target: T2, human TLR9 (Homo sapiens, UniProt Q9NR96); experiment: TLR9 inhibition reporter assay (HEK-Blue cells, SEAP reporter, ODN2006 stimulation); settings: HEK-Blue cells overexpressing human TLR9, SEAP reporter, ODN2006 5 nM
T2 construct: host or cells: HEK-Blue cells
T2 sequence (Q9NR96 26-1032): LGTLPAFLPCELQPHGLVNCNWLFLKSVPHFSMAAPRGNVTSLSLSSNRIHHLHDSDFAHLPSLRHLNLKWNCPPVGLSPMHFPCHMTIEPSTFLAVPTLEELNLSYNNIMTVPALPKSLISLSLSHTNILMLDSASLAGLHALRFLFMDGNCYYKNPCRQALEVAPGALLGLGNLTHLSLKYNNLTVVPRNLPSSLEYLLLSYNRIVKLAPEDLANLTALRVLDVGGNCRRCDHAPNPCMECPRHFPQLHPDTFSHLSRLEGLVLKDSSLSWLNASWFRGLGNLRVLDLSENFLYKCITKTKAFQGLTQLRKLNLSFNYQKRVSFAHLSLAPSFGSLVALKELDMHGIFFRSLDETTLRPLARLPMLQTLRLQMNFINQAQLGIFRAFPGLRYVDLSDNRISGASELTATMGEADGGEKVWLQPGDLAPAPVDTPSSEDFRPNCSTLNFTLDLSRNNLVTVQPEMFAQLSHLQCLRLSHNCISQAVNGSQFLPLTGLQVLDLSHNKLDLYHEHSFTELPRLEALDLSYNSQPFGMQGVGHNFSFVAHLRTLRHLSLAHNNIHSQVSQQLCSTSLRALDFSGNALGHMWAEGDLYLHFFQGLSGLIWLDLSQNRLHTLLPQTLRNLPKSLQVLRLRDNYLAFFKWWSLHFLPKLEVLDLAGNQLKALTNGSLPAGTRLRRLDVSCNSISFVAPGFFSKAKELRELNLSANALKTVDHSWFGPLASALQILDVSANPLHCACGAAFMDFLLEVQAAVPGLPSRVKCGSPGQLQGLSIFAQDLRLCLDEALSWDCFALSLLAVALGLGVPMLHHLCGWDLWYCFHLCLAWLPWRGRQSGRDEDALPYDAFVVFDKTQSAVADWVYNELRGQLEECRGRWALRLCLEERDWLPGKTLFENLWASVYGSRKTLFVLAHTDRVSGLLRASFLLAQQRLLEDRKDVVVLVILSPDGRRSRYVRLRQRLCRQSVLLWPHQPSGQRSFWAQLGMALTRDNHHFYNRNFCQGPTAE
Procedure, shortened: as §1

[3] = molecular target: T3, human TLR8 (Homo sapiens, UniProt Q9NR97); experiment: TLR8 inhibition reporter assay (HEK-Blue cells, SEAP reporter, R848 stimulation); settings: HEK-Blue cells overexpressing human TLR8, SEAP reporter, R848 15.9 μM; read-out: TLR8 IC50
T3 construct: host or cells: HEK-Blue cells
T3 sequence (Q9NR97 27-1041): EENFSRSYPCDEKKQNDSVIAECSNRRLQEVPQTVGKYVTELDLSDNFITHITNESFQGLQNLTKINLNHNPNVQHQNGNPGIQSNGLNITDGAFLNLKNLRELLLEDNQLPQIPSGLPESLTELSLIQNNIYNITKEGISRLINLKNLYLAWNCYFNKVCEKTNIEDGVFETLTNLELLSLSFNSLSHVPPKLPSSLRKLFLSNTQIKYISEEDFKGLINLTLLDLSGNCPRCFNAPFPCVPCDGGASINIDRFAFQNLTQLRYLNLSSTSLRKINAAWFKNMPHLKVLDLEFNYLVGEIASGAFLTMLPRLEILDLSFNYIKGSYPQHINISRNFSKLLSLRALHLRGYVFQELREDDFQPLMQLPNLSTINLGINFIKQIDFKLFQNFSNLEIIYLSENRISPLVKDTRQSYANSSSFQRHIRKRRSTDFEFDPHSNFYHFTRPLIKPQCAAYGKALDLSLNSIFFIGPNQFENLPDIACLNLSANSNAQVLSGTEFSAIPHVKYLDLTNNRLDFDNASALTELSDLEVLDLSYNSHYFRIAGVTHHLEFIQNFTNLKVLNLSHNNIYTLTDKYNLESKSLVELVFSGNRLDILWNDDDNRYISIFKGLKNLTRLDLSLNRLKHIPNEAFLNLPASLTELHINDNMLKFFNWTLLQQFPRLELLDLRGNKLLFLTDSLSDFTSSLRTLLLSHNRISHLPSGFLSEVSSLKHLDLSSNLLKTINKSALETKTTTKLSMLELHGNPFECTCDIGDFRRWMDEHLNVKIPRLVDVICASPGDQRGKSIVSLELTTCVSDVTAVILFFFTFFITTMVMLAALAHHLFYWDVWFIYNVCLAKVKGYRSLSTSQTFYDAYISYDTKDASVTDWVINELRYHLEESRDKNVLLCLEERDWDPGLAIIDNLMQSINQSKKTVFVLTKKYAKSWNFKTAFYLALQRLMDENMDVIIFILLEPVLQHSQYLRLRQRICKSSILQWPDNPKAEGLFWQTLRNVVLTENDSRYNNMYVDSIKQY
Procedure, shortened: as §1

Compound	IC50 [1] [nM]	IC50 [2] [µM]	IC50 [3] [nM]
Cc1cc(-c2[nH]c3sc(C4CCN(CC5(C)COC5)CC4)nc3c2C(C)C)cc(C)n1 [Example 27, 5-(2,6-dimethylpyridin-4-yl)-6-isopropyl-2-(1-((3-methyloxetan-3-yl)methyl)piperidin-4-yl)-4H-pyrrolo[3,2-d]thiazole]	29.7	0.388	2.87
Cc1cc(-c2[nH]c3sc(C4CCN(C(=O)CN(C)C)CC4)nc3c2C(C)C)cc(C)n1 [Example 28, 2-(dimethylamino)-1-(4-(5-(2,6-dimethylpyridin-4-yl)-6-isopropyl-4H-pyrrolo[3,2-d]thiazol-2-yl)piperidin-1-yl)ethan-1-one]	39	0.645	265
Cc1cc(-c2[nH]c3sc(C4CCN(CC(C)(C)O)CC4)nc3c2C(C)C)cc(C)n1 [Example 29, 1-(4-(5-(2,6-dimethylpyridin-4-yl)-6-isopropyl-4H-pyrrolo[3,2-d]thiazol-2-yl)piperidin-1-yl)-2-methylpropan-2-ol]	18.4	0.216	1.91
CC(C)c1c(-c2cn(C)c3ncccc23)[nH]c2sc(C3CCN(CC(=O)N(C)C)CC3)nc12 [Example 30, 2-(4-(6-isopropyl-5-(1-methyl-1H-pyrrolo[2,3-b]pyridin-3-yl)-4H-pyrrolo[3,2-d]thiazol-2-yl)piperidin-1-yl)-N,N-dimethylacetamide]	4.37	14.8	2.07
CC(C)c1c(-c2cn(C)c3ncccc23)[nH]c2sc(C3CCN(C4CCOCC4)CC3)nc12 [Example 35, 6-isopropyl-5-(1-methyl-1H-pyrrolo[2,3-b]pyridin-3-yl)-2-(1-(tetrahydro-2H-pyran-4-yl)piperidin-4-yl)-4H-pyrrolo[3,2-d]thiazole]	2.77	4.35	0.79
CC(C)c1c(-c2cn(C)c3ncccc23)[nH]c2sc(C3CCN(C(C)C)CC3)nc12 [Example 36, 6-isopropyl-2-(1-isopropylpiperidin-4-yl)-5-(1-methyl-1H-pyrrolo[2,3-b]pyridin-3-yl)-4H-pyrrolo[3,2-d]thiazole]	1300	25.2	1540
CC(C)c1c(-c2ccc(C#N)c3ncccc23)[nH]c2sc(C3CCN(C4COC4)CC3)nc12 [Example 37, 5-(6-isopropyl-2-(1-(oxetan-3-yl)piperidin-4-yl)-4H-pyrrolo[3,2-d]thiazol-5-yl)quinoline-8-carbonitrile]	12.1	27.9	27
CC(C)c1c(-c2ccc(C#N)c3ncccc23)[nH]c2sc(C3CCN(C4CCOCC4)CC3)nc12 [Example 38, 5-(6-isopropyl-2-(1-(tetrahydro-2H-pyran-4-yl)piperidin-4-yl)-4H-pyrrolo[3,2-d]thiazol-5-yl) quinoline-8-carbonitrile]	7.93	2.28	4.43
CC(C)c1c(-c2ccc(C#N)c3ncccc23)[nH]c2sc(C3CCN(C(=O)CN(C)C)CC3)nc12 [Example 39, 5-(2-(1-(dimethylglycyl)piperidin-4-yl)-6-isopropyl-4H-pyrrolo[3,2-d]thiazol-5-yl)quinoline-8-carbonitrile]	8.31	3.56	25.5
CC(C)c1c(-c2ccc(C#N)c3ncccc23)[nH]c2sc(C3CCN(CC(=O)N(C)C)CC3)nc12 [Example 40, 2-(4-(5-(8-cyanoquinolin-5-yl)-6-isopropyl-4H-pyrrolo[3,2-d]thiazol-2-yl)piperidin-1-yl)-N,N-dimethylacetamide]	29.9	18.9	31.1
Cc1c(-c2[nH]c3sc(C4CCNCC4)nc3c2C(C)C)cn2ncnc2c1C [Example 41, 5-(7,8-dimethyl-[1,2,4]triazolo[1,5-a]pyridin-6-yl)-6-isopropyl-2-(piperidin-4-yl)-4H-pyrrolo[3,2-d]thiazole]	1.19	8.43	2.66
Cc1c(-c2[nH]c3sc(C4CCNCC4)nc3c2C(C)C)cn(C)c(=O)c1C [Example 42, 5-(6-isopropyl-2-(piperidin-4-yl)-4H-pyrrolo[3,2-d]thiazol-5-yl)-1,3,4-trimethylpyridin-2(1H)-one]	2.99	19	6.77
Cc1c(-c2[nH]c3sc(C4CCN(C(C)C)CC4)nc3c2C(C)C)cn2ncnc2c1C [Example 44, 5-(7,8-dimethyl-[1,2,4]triazolo[1,5-a]pyridin-6-yl)-6-isopropyl-2-(1-isopropylpiperidin-4-yl)-4H-pyrrolo[3,2-d]thiazole]	1.68	15.1	0.63
Cc1c(-c2[nH]c3sc(C4CCN(S(C)(=O)=O)CC4)nc3c2C(C)C)cn2ncnc2c1C [Example 45, 5-(7,8-dimethyl-[1,2,4]triazolo[1,5-a]pyridin-6-yl)-6-isopropyl-2-(1-(methylsulfonyl)piperidin-4-yl)-4H-pyrrolo[3,2-d]thiazole]	1.84	45.4	19.5
